Columns and labels:
[1] = system: prophylactic TNBS rat colitis model; assay: TNBS dose escalation study, colon histopathology (Example 4); assay type: in vivo, Sprague-Dawley (SD) rats; parameters: key to colon necrosis: no: 0=No necrosis; very minimal: 0.5=Very minimal, focal, affects <2% of the total colon; minimal: 1.0=Minimal focal or multifocal, affects 2-10% of the total colon; mild: 2.0=Mild, focal or multifocal, affects 11-25% of the total colon; moderate: 3.0=Moderate focal or multifocal, affects 26-50% of the total colon; marked: 4.0=Marked focal or multifocal, affects 51-75% of the total colon; severe: 5.0=Severe affects >75% of the total colon
Source text: Inflammation—neutrophil and macrophage infiltration predominantly, fibroplasia and neovascularization in areas of transmural necrosis 0=No inflammation 0.5=Very minimal focal infiltrates in mucosa only, affects <2% of the total colon 1.0=Minimal multifocal infiltrates in mucosa only, affects 2-10% of the total colon 2.0=Mild multifocal infiltrates affecting mucosa, submucosa, outer muscle layers and serosa, affects 11-25% of the total colon 3.0=Moderate multifocal infiltrates affecting mucosa, submucosa, outer muscle layers and serosa, affects 26-50% of the total colon 4.0=Marked multifocal to diffuse infiltrates affecting mucosa, submucosa, outer muscle layers and serosa, affects 51-75% of the total colon 5.0=Severe multifocal to diffuse infiltrates affecting mucosa, submucosa, outer muscle layers and serosa, affects >75% of the total colon. Necrosis—measure the total length of all colon sections, measure the total length of necrotic mucosa devoid of epithelium to determine % area affected 0=No necrosis 0.5=Very minimal, focal, affects <2% of the total colon 1.0=Minimal focal or multifocal, affects 2-10% of the total colon 2.0=Mild, focal or multifocal, affects 11-25% of the total colon 3.0=Moderate focal or multifocal, affects 26-50% of the total colon 4.0=Marked focal or multifocal, affects 51-75% of the total colon 5.0=Severe, affects >75% of the total colon Sprague-Dawley (SD) rats 118 (male, 180-200 g) were assigned to 11 groups of 10 or 12 rats per group so that each group has approximately the same mean weight. (Day −1) Initiate daily dosing of Groups 1-11 as in TABLE 1. Rats are deprived of food for 24 hours prior to disease initiation. 1) Intra-rectal (IR) administration is accomplished by briefly anesthetizing the rats, administering the test material at 10 ml/kg via a 20 gauge feeding needle inserted via the rectum, maintaining the rat in an inverted position with anus pinched shut until recovered from anesthesia. 2) Oral formulations are first dissolved in 0.05N acetic acid and pH adjusted to 6-7 with 0.1N NaOH. [table] (DAY 0) Prepare TNBS Solution (50% TNBS: 50% 200 proof ethanol; 16 mg/ml TNBS). Dose as in TABLE 3. After 1 hour, rats in Groups 2-11 are administered TNBS. Anesthetize rats and administer 64 mg/kg (4 ml/kg) TNBS Solution into colon of each rat, then re-feed rats. (DAY 7): Rats are weighed and dosed as in Table 3. […]. Terminal blood samples are collected from anesthetized rats. Samples are collected in pre-chilled-tubes and processed to serum. Store serum at −80° C. in several aliquots. A midline incision is made on each animal. Colon is removed and length measured and recorded. A longitudinal incision is made on each colon. Fecal material is gently washed away with saline. Excess fluid is gently blotted and colon weighed. The severity of IBD is assessed using the following scoring system: maximum score=10 • 1) Adhesions: • none=0 • minimal=1 • involving several bowel loops=2 • 2) Strictures: • none=0 • mild=1 • moderate=2 • severe, proximal dilatation=3 • 3) Ulcers: • none=0 • inear ulceration <1 cm=1 • two linear ulcers <1 cm=2 • more sites of ulceration or one large ulcer=3 • 4) Wall thickness: • less than 1 mm=0 • 1-3 mm=1 • >3 mm=2 A section of colon is preserved in 10 volumes of 10% neutral buffered formalin for histopathology. A section of colon is homogenized in PBS, centrifuged, and aliquots of the homogenate in labeled Eppendorf tubes are stored at −80° C. for cytokine analysis.

[2] = system: TNBS (2,4,6-trinitrobenzenesulfonic acid) rat colitis model; assay: Prophylactic efficacy study in TNBS rat colitis model, colon histopathology (Example 3); assay type: in vivo, Sprague-Dawley rats
Method: Prophylactic efficacy study in TNBS (2,4,6-trinitrobenzenesulfonic acid) rat colitis model.
Preparation of doses: For Groups 1, 2: 50 ml 0.1M acetic acid and 30 ml sterile water were combined. The pH was adjusted from 4.45 to 6.7 with 0.1N NaOH. The stir bar was removed and the solution made up to 100 ml with sterile water. For Group 3, 133.9 mg prednisolone 21-hemisuccinate sodium salt was dissolved in 100 ml de-ionized water to prepare a 1 mg/ml solution. For Group 4, 600 mg Nadolol was dissolved in 50 ml 0.1M acetic acid and 30 ml sterile water. The pH was adjusted from 4.45 to 6.7 with 0.1N NaOH, and the solution made up to 100 ml with sterile water. For Group 5, 1.2 g Nadolol was dissolved in 50 ml 0.1M acetic acid and 30 ml sterile water. The pH was adjusted from 4.45 to 6.7 with 0.1N NaOH and the solution made up to 100 ml with sterile water. For Group 6: 1 g cellulose gum was dissolved in 50 ml 0.1N acetic acid and 30 ml de-ionized water. The volume was made up to 100 ml with sterile water. For Group 7, 600 mg Nadolol was dissolved in 50 ml 0.1M acetic acid and 30 ml sterile water. 1 g cellulose gum was added and dissolved into the solution and the solution made up to 100 ml with sterile water. For Group 8, 1.2 g Nadolol was dissolved in 50 ml 0.1M acetic acid and 30 ml sterile water. 1 g cellulose gum was added and dissolved into the solution and the solution made up to 100 ml with sterile water.
(Day −1) 84 Sprague-Dawley rats (male, 160-180 g each) were sorted into treatment groups based upon average body weight. The rats were weighed and food-deprived. The rats in groups 1-5 were dosed orally (PO) at 10 ml/kg with their respective solutions according to Table 2. The rats in Groups 6-8 were anesthetized intra-rectally (IR) instilled with 10 ml/kg of their respective treatment according to Table 2, the anus was pinched closed and the rat held inverted until recovered from anesthesia (at least 1 min).
After 24 hours (day 0), an aqueous solution of TNBS (2,4,6-trinitrobenzenesulfonic acid) 16 mg/ml in 50% ethanol was made and the rats were weighed and dosed as in TABLE 2. One hour later, the rats anesthetized and Groups 2-8 were intra-rectally instilled with 4 ml/kg TNBS solution (64 mg/kg), the anus was pinched closed and the rat held inverted until recovered from anesthesia (at least 1 min). Group 1 received de-ionized water. The rats were re-fed after recovery from TNBS instillation.
The rats were weighed and dosed as in TABLE 2 each day for the next six days (day 2-7), The rats were anesthetized and exsanguinated into pre-chilled serum separator tubes, the blood processed to serum which was stored in several aliquots at −80° C. A midline incision was made in the abdomen and the colon was evaluated for adhesions and stricture. The colon was removed and the length recorded. A midline incision was made the entire length of the colon, the contents removed and the colon weight and colon wall thickness recorded. A section of the colon was preserved in 20 volumes of 10% neutral buffered formalin. The end of the colon section at the rectal end of the section was edged with Evans Blue dye for orientation purposes. Another section of the colon was weighed and homogenized on an ice batch in 5 ml PBS. The homogenate was centrifuged and aliquots stored in labeled Eppendorf tubes at −80° C. The following parameters were used to determine colonic score: • Colonic Score Parameters • a) Adhesions: • 1) none=0 • 2) minimal=1 • 3) involving several bowel loops=2 • b) Strictures: • 1) none=0 • 2) mild=1 • 3) moderate=2 • 4) severe, proximal dilatation=3 • c) Ulcers: • 1) none=0 • 2) linear ulceration <1 cm=1 • 3) two linear ulcers <1 cm=2 • 4) more sites of ulceration or one large ulcer=3 • d) Wall thickness: • 1) less than 1 mm=0 • 2) 1-3 mm=1 • 3) >3 mm=2
The formalin-preserved colon samples were submitted for histological preparation and evaluation. […]

[3] = 10 mpk, FIG. 4c, animal with approximate mean summed score for the group
[4] = 60 mpk, FIG. 5c (route not given, IR by group order of Table 2)
[5] = 60 mpk, FIG. 4d (route not given, PO by group order of Table 2)
[6] = 120 mpk, FIG. 5a (route not given, PO by group order of Table 2)
[7] = 120 mpk, FIG. 5d (route not given, IR by group order of Table 2)

Structure (SMILES): C[C@]12C=CC(=O)C=C1CC[C@@H]1[C@@H]2[C@@H](O)C[C@@]2(C)[C@H]1CC[C@]2(O)C(=O)CO [prednisolone]
- colon inflammation ([1]; PO 10 mpk, FIG. 12c): minimal (1.0=Minimal multifocal infiltrates in mucosa only, affects 2-10% of the total colon)
- colon necrosis ([1]; PO 10 mpk, FIG. 12c): minimal (1.0=Minimal focal or multifocal, affects 2-10% of the total colon)
- colon inflammation [2, 3]: minimal (1.0=Minimal multifocal infiltrates in mucosa only, affects 2-10% of the total colon)
- colon necrosis [2, 3]: very minimal (0.5=Very minimal, focal, affects <2% of the total colon)

Structure (SMILES): CC(C)(C)NCC(O)COc1cccc2c1CC(O)C(O)C2 (centres unmarked) [nadolol]
- colon inflammation ([1]; IR 6 mpk, FIG. 12i): mild (2.0=Mild multifocal infiltrates affecting mucosa, submucosa, outer muscle layers and serosa, affects 11-25% of the total colon)
- colon necrosis ([1]; IR 6 mpk, FIG. 12i): no
- colon inflammation ([1]; IR 19 mpk, FIG. 12j): moderate (3.0=Moderate multifocal infiltrates affecting mucosa, submucosa, outer muscle layers and serosa, affects 26-50% of the total colon)
- colon necrosis ([1]; IR 19 mpk, FIG. 12j): mild (2.0=Mild, focal or multifocal, affects 11-25% of the total colon)
- colon inflammation ([1]; IR 60 mpk, FIG. 12k): severe (5.0=Severe multifocal to diffuse infiltrates affecting mucosa, submucosa, outer muscle layers and serosa, affects >75% of the total colon)
- colon necrosis ([1]; IR 60 mpk, FIG. 12k): severe (5.0=Severe affects >75% of the total colon)
- colon inflammation ([1]; PO 6 mpk, FIG. 12d): mild (2.0=Mild multifocal infiltrates affecting mucosa, submucosa, outer muscle layers and serosa, affects 11-25% of the total colon)
- colon necrosis ([1]; PO 6 mpk, FIG. 12d): severe (5.0=Severe affects >75% of the total colon)
- colon inflammation ([1]; PO 19 mpk, FIG. 12e): marked (4.0=Marked multifocal to diffuse infiltrates affecting mucosa, submucosa, outer muscle layers and serosa, affects 51-75% of the total colon)
- colon necrosis ([1]; PO 19 mpk, FIG. 12e): marked (4.0=Marked focal or multifocal, affects 51-75% of the total colon)
- colon inflammation ([1]; PO 60 mpk, FIG. 12f): severe (5.0=Severe multifocal to diffuse infiltrates affecting mucosa, submucosa, outer muscle layers and serosa, affects >75% of the total colon)
- colon necrosis ([1]; PO 60 mpk, FIG. 12f): severe (5.0=Severe affects >75% of the total colon)
- colon inflammation ([1]; PO 120 mpk, FIG. 12g): mild (2.0=Mild multifocal infiltrates affecting mucosa, submucosa, outer muscle layers and serosa, affects 11-25% of the total colon)
- colon necrosis ([1]; PO 120 mpk, FIG. 12g): no
- colon inflammation [2, 4]: moderate (3.0=Moderate multifocal infiltrates affecting mucosa, submucosa, outer muscle layers and serosa, affects 26-50% of the total colon)
- colon necrosis [2, 4]: moderate (3.0=Moderate focal or multifocal, affects 26-50% of the total colon)
- colon inflammation [2, 5]: moderate (3.0=Moderate multifocal infiltrates affecting mucosa, submucosa, outer muscle layers and serosa, affects 26-50% of the total colon)
- colon necrosis [2, 5]: moderate (3.0=Moderate focal or multifocal, affects 26-50% of the total colon)
- colon inflammation [2, 6]: moderate (3.0=Moderate multifocal infiltrates affecting mucosa, submucosa, outer muscle layers and serosa, affects 26-50% of the total colon)
- colon necrosis [2, 6]: mild (2.0=Mild, focal or multifocal, affects 11-25% of the total colon)
- colon inflammation [2, 7]: mild (2.0=Mild multifocal infiltrates affecting mucosa, submucosa, outer muscle layers and serosa, affects 11-25% of the total colon)
- colon necrosis [2, 7]: mild (2.0=Mild, focal or multifocal, affects 11-25% of the total colon)

Reference: patent US20160303133A1, “TREATMENT OF GASTROINTESTINAL AND OTHER DISORDERS” (NUMEDII, INC., priority 2013, published 2016)
